Laboratory results taken from ChEMBL document CHEMBL1133334, “Synthesis and pharmacology of new enantiopure delta(3)-4-arylkainoids” (Bioorg Med Chem Lett, 2000).

Target: Glutamate NMDA receptor
Test: Compound was tested for agonistic activity at the N-methyl-D-aspartate glutamate receptor obtained from the rat cortical wedge preparation
Type: functional
Conditions: read-out: KD app

| SMILES | Kd [µM] |
| --- | --- |
| O=C(O)CC1=C(c2ccsc2)CN[C@@H]1C(=O)O | 45 |
| O=C(O)CC1=C(c2cccs2)CN[C@@H]1C(=O)O | 20 |
| O=C(O)CC1=C(c2ccco2)CN[C@@H]1C(=O)O | 70 |
| COc1ccccc1C1=C(CC(=O)O)[C@@H](C(=O)O)NC1 | 380 |
| O=C(O)CC1=C(c2ccccc2)CN[C@@H]1C(=O)O | 560 |
| O=C(O)CC1=C(c2ccc3ccccc3c2)CN[C@@H]1C(=O)O | 250 |
| O=C(O)CC1=C(c2ccoc2)CN[C@@H]1C(=O)O | 85 |
